Experimental data taken from the supplement of paper PMC11208160.

Test: recombinant UMI read abundance after kanamycin selection (control-corrected) (log10(CPM+1)); higher = more efficient recombination; extreme values may be limits of the assay; sequences stand for … in AGTGCAGAGAAAATCGGCCAGTTTTCTCTGCCTGCAGTCCGCATGCCGTGGGACCCCTTGGGTTCTAACCTGTTGCCTAGATTTATGCAGCGGACTGCCTTTCTCCCAAAGTGATAAACCGG…AGGTTGGTTTCACT; site = the 11-nt donor
Procedure, shortened: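 In Escherichia coli, a pool of donor and donor-binding-loop pairs, each with a 12-nt UMI, was tested for the IS621 bridge recombinase. Plating was on IPTG (0.07 mM) plus kanamycin, or without selection, in two replicates. Recombinant UMIs were amplified by PCR across the donor–target junction and sequenced, and counts were reported as log10(CPM+1) after averaging and control-derived scaling.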
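Note: IS621 bridge recombinase in Escherichia coli cells against a fixed T5 target plasmid.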

Sequence | recombinant UMI read abundance (log10)
CTACTAACATGGACCGGTTTTCCCGGTAATCCGTATTTGGT (site CTACTAACTCC) | 0.0128
CTACTAACATGGACCGGTTTTCCCGGTAATCCGTATTTGGT (site CTACTAACTGC) | 0
CTACTAACATGGACCGGTTTTCCCGGTAATCCGTATTTGGT (site CTACTAACTTC) | 0.0138
CTACTAGCATGGACCGGTTTTCCCGGTAATCCGTATTTGGA (site CTACTAACTTC) | 1.43
CTACTAGCATGGACCGGTTTTCCCGGTAATCCGTATTTGGA (site CTACTACCTTC) | 0.00939
CTACTAGCATGGACCGGTTTTCCCGGTAATCCGTATTTGGA (site CTACTAGCTTC) | 1.52
CTACTAGCATGGACCGGTTTTCCCGGTAATCCGTATTTGGA (site CTACTATCTTC) | 2.05
CTACTGACATGGACCGGTTTTCCCGGTAATCCGTATTTGGA (site CTACTAACTTC) | 1.76
CTACTGACATGGACCGGTTTTCCCGGTAATCCGTATTTGGA (site CTACTCACTTC) | 0.015
CTACTGACATGGACCGGTTTTCCCGGTAATCCGTATTTGGA (site CTACTGACTTC) | 0.475
CTACTGACATGGACCGGTTTTCCCGGTAATCCGTATTTGGA (site CTACTTACTTC) | 0.67
CTACTTACATGGACCGGTTTTCCCGGTAATCCGTATTTGGA (site CTACTAACTTC) | 0.0935
CTACTTACATGGACCGGTTTTCCCGGTAATCCGTATTTGGA (site CTACTCACTTC) | 0.209
CTACTTACATGGACCGGTTTTCCCGGTAATCCGTATTTGGA (site CTACTGACTTC) | 0.0111
CTACTTACATGGACCGGTTTTCCCGGTAATCCGTATTTGGA (site CTACTTACTTC) | 1.32
CTACTTTCATGGACCGGTTTTCCCGGTAATCCGTATTTGAC (site CTACTTTCTGT) | 1.94
CTACTTTCATGGACCGGTTTTCCCGGTAATCCGTATTTGAC (site CTAGTATCTGT) | 0
CTAGAATCATGGACCGGTTTTCCCGGTAATCCGTATTTGAC (site CTAGAATCTGT) | 2.83
CTAGAATCATGGACCGGTTTTCCCGGTAATCCGTATTTGAC (site CTAGCATCTGT) | 0
CTAGAATCATGGACCGGTTTTCCCGGTAATCCGTATTTGAC (site CTAGGATCTGT) | 1.28
CTAGAATCATGGACCGGTTTTCCCGGTAATCCGTATTTGAC (site CTAGTATCTGT) | 2
CTAGAGGCATGGACCGGTTTTCCCGGTAATCCGTATTTGTT (site CTAGAGGCTAA) | 1.82
CTAGCAGCATGGACCGGTTTTCCCGGTAATCCGTATTTGCT (site CAAGCAGCTAG) | 0.38

Sequence | recombinant UMI read abundance (log10)
CTAGCAGCATGGACCGGTTTTCCCGGTAATCCGTATTTGCT (site CCAGCAGCTAG) | 0.129
CTAGCAGCATGGACCGGTTTTCCCGGTAATCCGTATTTGCT (site CGAGCAGCTAG) | 0
CTAGCAGCATGGACCGGTTTTCCCGGTAATCCGTATTTGCT (site CTAGCAGCTAG) | 1.36
CTAGCGCCATGGACCGGTTTTCCCGGTAATCCGTATTTGTG (site CAAGCGCCTCA) | 0.0754
CTAGCGCCATGGACCGGTTTTCCCGGTAATCCGTATTTGTG (site CCAGCGCCTCA) | 0.0159
CTAGCGCCATGGACCGGTTTTCCCGGTAATCCGTATTTGTG (site CGAGCGCCTCA) | 0.00935
CTAGCGCCATGGACCGGTTTTCCCGGTAATCCGTATTTGTG (site CTAGCGCCTCA) | 0.446
CTAGGACCATGGACCGGTTTTCCCGGTAATCCGTATTTGGG (site CAAGGACCTCC) | 0.0215
CTAGGACCATGGACCGGTTTTCCCGGTAATCCGTATTTGGG (site CCAGGACCTCC) | 0.00872
CTAGGACCATGGACCGGTTTTCCCGGTAATCCGTATTTGGG (site CGAGGACCTCC) | 0
CTAGGACCATGGACCGGTTTTCCCGGTAATCCGTATTTGGG (site CTAGGACCTCC) | 0.0095
CTAGGACCATGGACCGGTTTTCCCGGTAATCCGTATTTGTG (site CTAGGACCTCA) | 0.00443
CTAGGATCATGGACCGGTTTTCCCGGTAATCCGTATTTGAC (site CTAGAATCTGT) | 2.89
CTAGGATCATGGACCGGTTTTCCCGGTAATCCGTATTTGAC (site CTAGCATCTGT) | 1.06
CTAGGATCATGGACCGGTTTTCCCGGTAATCCGTATTTGAC (site CTAGGATCTGT) | 1.9
CTAGGATCATGGACCGGTTTTCCCGGTAATCCGTATTTGAC (site CTAGTATCTGT) | 1.35
CTAGTACCATGGACCGGTTTTCCCGGTAATCCGTATTTGGC (site CTAGTACCTGC) | 0
CTAGTACCATGGACCGGTTTTCCCGGTAATCCGTATTTGGC (site CTAGTATCTGT) | 1.63
CTAGTAGCATGGACCGGTTTTCCCGGTAATCCGTATTTGAC (site CTAGTAACTGT) | 2.01
CTAGTAGCATGGACCGGTTTTCCCGGTAATCCGTATTTGAC (site CTAGTACCTGT) | 0
CTAGTAGCATGGACCGGTTTTCCCGGTAATCCGTATTTGAC (site CTAGTAGCTGT) | 2.87
CTAGTAGCATGGACCGGTTTTCCCGGTAATCCGTATTTGAC (site CTAGTATCTGT) | 2.74
CTAGTATCATGGACCGGTTTTCCCGGTAATCCGTATTTGGC (site CTAGTATCTGA) | 2.25

Sequence | recombinant UMI read abundance (log10)
CTAGTATCATGGACCGGTTTTCCCGGTAATCCGTATTTGGC (site CTAGTATCTGC) | 3.32
CTAGTATCATGGACCGGTTTTCCCGGTAATCCGTATTTGGC (site CTAGTATCTGG) | 2.2
CTAGTATCATGGACCGGTTTTCCCGGTAATCCGTATTTGGC (site CTAGTATCTGT) | 2.76
CTAGTATCATGGACCGGTTTTCCCGGTAATCCGTATTTGGT (site CTAGTATCTAC) | 1.85
CTAGTATCATGGACCGGTTTTCCCGGTAATCCGTATTTGGT (site CTAGTATCTGT) | 2.06
CTAGTATCATGGACCGGTTTTCCCGGTAATCCGTATTTGTC (site CTAGTATCTGA) | 3.35
CTAGTATCATGGACCGGTTTTCCCGGTAATCCGTATTTGTC (site CTAGTATCTGC) | 3.17
CTAGTATCATGGACCGGTTTTCCCGGTAATCCGTATTTGTC (site CTAGTATCTGG) | 3.08
CTAGTATCATGGACCGGTTTTCCCGGTAATCCGTATTTGTC (site CTAGTATCTGT) | 2.65
CTAGTCTCATGGACCGGTTTTCCCGGTAATCCGTATTTGAG (site CTAGTATCTGT) | 0
CTAGTCTCATGGACCGGTTTTCCCGGTAATCCGTATTTGAG (site CTAGTCTCTCT) | 0.61
CTAGTCTCATGGACCGGTTTTCCCGGTAATCCGTATTTGTC (site CTAGTATCTGT) | 0.445
CTAGTCTCATGGACCGGTTTTCCCGGTAATCCGTATTTGTC (site CTAGTCTCTGA) | 3.48
CTAGTTGCATGGACCGGTTTTCCCGGTAATCCGTATTTGAC (site CTAGTATCTGT) | 0.412
CTAGTTGCATGGACCGGTTTTCCCGGTAATCCGTATTTGAC (site CTAGTTGCTGT) | 2.24
CTATAGCCATGGACCGGTTTTCCCGGTAATCCGTATTTGCG (site CTATAGCCTCG) | 1.01
CTATATCCATGGACCGGTTTTCCCGGTAATCCGTATTTGTA (site CTATATCCTTA) | 1.51
CTATCATCATGGACCGGTTTTCCCGGTAATCCGTATTTGAT (site CTATCATCTAT) | 0.00941
CTATGATCATGGACCGGTTTTCCCGGTAATCCGTATTTGCA (site CTATGATCTTG) | 2.62
CTATGCTCATGGACCGGTTTTCCCGGTAATCCGTATTTGAA (site CAATGCTCTTT) | 0.941
CTATGCTCATGGACCGGTTTTCCCGGTAATCCGTATTTGAA (site CCATGCTCTTT) | 0.497
CTATGCTCATGGACCGGTTTTCCCGGTAATCCGTATTTGAA (site CGATGCTCTTT) | 0.383
